Reference: ChEMBL document CHEMBL3853354, “Structure-activity relationships of proline modifications around the tetracyclic-indole class of NS5A inhibitors” (Bioorg Med Chem Lett, 2016)

Assays:
[1] = system: Hepatitis C virus subtype 1a; assay: Inhibition of NS5A in HCV genotype 1a assessed as reduction in replicon RNA level after 3 days by cell based RT-PCR method
[2] = system: Nonstructural protein 5A (Hepatitis C virus), Q5L478 [UNDEFINED MUTATION]; assay: Inhibition of NS5A L31V mutant in HCV genotype 1a assessed as reduction in replicon RNA level after 3 days by cell based RT-PCR method; conditions: Hepatitis C virus subtype 1a
[3] = system: T1, Nonstructural protein 5A (Hepatitis C virus), Q5L478 [Y93H]; assay: Inhibition of NS5A Y93H mutant in HCV genotype 1a assessed as reduction in replicon RNA level after 3 days by cell based RT-PCR method; conditions: Hepatitis C virus subtype 1a
T1 sequence (whole entry): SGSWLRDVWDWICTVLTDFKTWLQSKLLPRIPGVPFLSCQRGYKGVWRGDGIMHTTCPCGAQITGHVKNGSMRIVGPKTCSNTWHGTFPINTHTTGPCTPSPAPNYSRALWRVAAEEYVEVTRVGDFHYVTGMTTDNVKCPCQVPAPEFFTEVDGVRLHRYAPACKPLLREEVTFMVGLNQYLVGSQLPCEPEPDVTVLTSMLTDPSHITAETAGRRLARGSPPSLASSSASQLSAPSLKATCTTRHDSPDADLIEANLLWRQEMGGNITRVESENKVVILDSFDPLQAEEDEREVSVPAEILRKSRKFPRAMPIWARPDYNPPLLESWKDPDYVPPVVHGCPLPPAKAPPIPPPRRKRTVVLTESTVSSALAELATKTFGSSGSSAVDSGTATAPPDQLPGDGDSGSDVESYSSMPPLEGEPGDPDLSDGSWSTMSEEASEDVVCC

[4] = system: Hepatitis C virus subtype 2b; assay: Inhibition of NS5A in HCV genotype 2b assessed as reduction in replicon RNA level after 3 days by cell based RT-PCR method
[5] = system: Hepatitis C virus subtype 1a; assay: Selectivity ratio of EC90 for NS5A L31V mutant in HCV genotype 1a to EC90 for NS5A in HCV genotype 1a
[6] = system: Hepatitis C virus subtype 1a; assay: Selectivity ratio of EC90 for NS5A Y93H mutant in HCV genotype 1a to EC90 for NS5A in HCV genotype 1a
[7] = Selectivity ratio of EC90 for NS5A in HCV genotype 2b to EC90 for NS5A in HCV genotype 1a
[8] = Half life in rat at 2 mg/kg, iv; assay type: ADME, organism-based; conditions: in vivo
[9] = Clearance in rat at 2 mg/kg, iv; assay type: ADME, organism-based; conditions: in vivo
[10] = AUC in rat at 10 mg/kg, po; assay type: ADME, organism-based; conditions: in vivo
[11] = Cmax in rat at 10 mg/kg, po; assay type: ADME, organism-based; design: dose 10 mg/kg, route oral; conditions: in vivo
[12] = Oral bioavailability in rat at 10 mg/kg; assay type: ADME, organism-based; conditions: in vivo
[13] = system: Hepatitis C virus subtype 3a; assay: Inhibition of NS5A in HCV genotype 3a assessed as reduction in replicon RNA level after 3 days by cell based RT-PCR method

With `COC(=O)N[C@H](C(=O)N1CCC[C@H]1c1ncc(-c2ccc3c(c2)OC(c2cccc(OC)c2)n2c-3cc3cc(-c4cnc([C@@H]5C[C@H]6C[C@H]6N5C(=O)[C@@H](NC(=O)OC)C(C)C)[nH]4)ccc32)[nH]1)C(C)C` (some centres not stated) as the molecule, how does the EC90 [1] read?
Its EC90 is 0.013 nM.

What about the EC90 [2] of the same molecule?
The EC90 was 0.13 nM.

What about the EC90 [3] of the same molecule?
Its EC90 is 6.45 nM.

And the EC90 [4]?
The EC90 was 4.66 nM.

What about the Selectivity ratio [5] of the same molecule?
Its Selectivity ratio is 10.

What about the Selectivity ratio [6] of the same molecule?
The Selectivity ratio was 500.

What about the Selectivity ratio [7] of the same molecule?
Its Selectivity ratio is 360.

And the half-life [8]?
Its half-life is 4.7 h.

What about the clearance [9] of the same molecule?
The clearance was 0.36 L/h/kg.

What about the AUC [10] of the same molecule?
Its AUC is 3640 nM·h.

What about the Cmax [11] of the same molecule?
Its Cmax is 0.63 µM.

What about the bioavailability [12] of the same molecule?
The bioavailability was 13%.

With `COC(=O)N[C@H](C(=O)N1CCC[C@H]1c1ncc(-c2cc(F)c3c(c2)OC(c2ccc4c(c2)OCCC4)n2c-3cc3cc(-c4cnc([C@@H]5C[C@H]6C[C@H]6N5C(=O)[C@@H](NC(=O)OC)C(C)C)[nH]4)ccc32)[nH]1)C(C)C` (some centres not stated) as the molecule, how does the EC90 [1] read?
The EC90 was 0.004 nM.

What about the EC90 [2] of the same molecule?
Its EC90 is 0.007 nM.

And the EC90 [3]?
Its EC90 is 0.12 nM.

What about the EC90 [4] of the same molecule?
Its EC90 is 0.38 nM.

What about the Selectivity ratio [5] of the same molecule?
The Selectivity ratio was 2.

What about the Selectivity ratio [6] of the same molecule?
The Selectivity ratio was 30.

And the Selectivity ratio [7]?
The Selectivity ratio was 95.

What about the half-life [8] of the same molecule?
The half-life was 4.6 h.

And the clearance [9]?
Its clearance is 0.684 L/h/kg.

And the AUC [10]?
The AUC was 630 nM·h.

And the Cmax [11]?
Its Cmax is 0.073 µM.

What about the bioavailability [12] of the same molecule?
The bioavailability was 4%.

For `COC(=O)N[C@H](C(=O)N1CCC[C@H]1c1ncc(-c2cc(F)c3c(c2)OC(c2cccc(OC)c2)n2c-3cc3cc(-c4cnc([C@@H]5CCCN5C(=O)[C@@H](NC(=O)OC)C(C)C)[nH]4)ccc32)[nH]1)C(C)C` (some centres not stated), which EC90 [1] is on record?
Its EC90 is 0.01 nM.

What about the EC90 [4] of the same molecule?
Its EC90 is 5.72 nM.

And the EC90 [13]?
The EC90 was 0.07 nM.

And the Selectivity ratio [5]?
The Selectivity ratio was 20.

And the Selectivity ratio [6]?
The Selectivity ratio was 230.

And the Selectivity ratio [7]?
The Selectivity ratio was 570.

Which EC90 [1] does the source give for `COC(=O)N[C@H](C(=O)N1CCC[C@H]1c1ncc(-c2ccc3c(c2)cc2n3C(c3cccc(OC)c3)Oc3cc(-c4cnc([C@@H]5C[C@@H](F)CN5C(=O)[C@@H](NC(=O)OC)C(C)C)[nH]4)ccc3-2)[nH]1)C(C)C` (some centres not stated) here?
Its EC90 is < 0.02 nM.

And the EC90 [2]?
The EC90 was 0.81 nM.

And the EC90 [3]?
The EC90 was 19.8 nM.

What about the EC90 [4] of the same molecule?
Its EC90 is 60.8 nM.

What about the Selectivity ratio [5] of the same molecule?
Its Selectivity ratio is > 41.

What about the Selectivity ratio [6] of the same molecule?
The Selectivity ratio was > 990.

And the Selectivity ratio [7]?
Its Selectivity ratio is > 3040.
